Data published in BindingDB's records for patent US20240400586 (Haisco Pharmaceutical Group, 2024).

Biological target: Poly [ADP-ribose] polymerase 1 (Homo sapiens, UniProt P09874)
Test: PARP1 Enzyme Activity Assay
Method: The histone solution in the kit was diluted 5× with 1×PBS, and 25 μL of the diluted histone solution was added to a microwell plate and incubated overnight at 4° C. After the incubation, the plate was washed three times with PBST (0.05% Tween-20). 100 μL of the blocking solution was added to the microwell plate and incubated at 25° C. for 90 minutes. After the incubation, the plate was washed three times with PBST. 2.5 μL of compounds at different concentrations diluted in test buffer and 12.5 μL of substrate mixed solution (1.25 μL 10×PARP test buffer; 1.25 μL 10×PARP test mixed solution; 2.5 μL Activated DNA, 7.5 μL double-distilled water) were added to the microwell plate. The PARP1 enzyme was diluted to 2 ng/μL, 10 μL of the diluent was added to the microwell plate, and the reaction system was incubated at 25° C. for 60 minutes.After the incubation, the plate was washed three times with PBST. Streptavidin-HRP was diluted 50× with a blocking solution, and 25 μL of the diluent was added to the microwell plate and incubated at 25° C. for 30 minutes. After the incubation, the plate was washed three times with PBST. ELISA ECL substrate A and substrate B were mixed at a ratio of 1:1 (v/v), 50 μL of the mixture was added to the microwell plate, and the chemiluminescence value was read.

Poly [ADP-ribose] polymerase 1, sequence (P09874 whole entry): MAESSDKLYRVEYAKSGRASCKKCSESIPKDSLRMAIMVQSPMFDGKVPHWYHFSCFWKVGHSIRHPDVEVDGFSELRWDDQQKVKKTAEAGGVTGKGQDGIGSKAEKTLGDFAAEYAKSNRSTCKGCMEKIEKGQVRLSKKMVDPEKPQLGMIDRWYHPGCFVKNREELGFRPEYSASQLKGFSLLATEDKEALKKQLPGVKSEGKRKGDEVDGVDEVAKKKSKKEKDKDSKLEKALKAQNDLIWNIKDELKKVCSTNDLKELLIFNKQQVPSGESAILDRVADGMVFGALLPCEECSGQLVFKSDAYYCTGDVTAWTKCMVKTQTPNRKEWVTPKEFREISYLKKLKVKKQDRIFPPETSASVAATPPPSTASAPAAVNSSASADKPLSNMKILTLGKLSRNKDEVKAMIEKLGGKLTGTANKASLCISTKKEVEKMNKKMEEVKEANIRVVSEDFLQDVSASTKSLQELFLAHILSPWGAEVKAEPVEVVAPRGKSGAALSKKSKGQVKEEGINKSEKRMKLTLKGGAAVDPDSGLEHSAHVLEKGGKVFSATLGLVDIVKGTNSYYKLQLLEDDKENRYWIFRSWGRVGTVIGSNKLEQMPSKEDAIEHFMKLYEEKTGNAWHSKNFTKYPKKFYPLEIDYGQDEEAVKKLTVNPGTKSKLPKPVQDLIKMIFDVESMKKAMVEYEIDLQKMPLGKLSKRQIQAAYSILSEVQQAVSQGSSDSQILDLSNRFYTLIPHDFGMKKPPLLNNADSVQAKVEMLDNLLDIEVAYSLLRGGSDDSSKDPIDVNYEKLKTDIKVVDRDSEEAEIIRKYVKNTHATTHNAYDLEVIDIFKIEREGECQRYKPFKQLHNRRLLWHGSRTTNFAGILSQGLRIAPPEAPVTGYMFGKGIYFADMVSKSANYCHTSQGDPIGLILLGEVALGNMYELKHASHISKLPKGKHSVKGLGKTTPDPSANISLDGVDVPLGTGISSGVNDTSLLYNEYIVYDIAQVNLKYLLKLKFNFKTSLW

Structure (SMILES)	IC50 [nM]
CCC1=CC2N=CC(CN3CCN(c4ccc(C(=O)NC5CCC5)nc4)CC3)CC2NC1=O (stereo not drawn) [US20240400586, Compound 10]	0.56
CCC1CC2N=CC(CN3CCN(C4C=CC(C(=O)N[C@@H]5C[C@@H]5F)=NC4)CC3)=CC2NC1=O (stereo partly drawn) [US20240400586, Compound 11]	0.54
CCC1Cc2ncc(CN3CCN(C4CN5C=C(C)NC5C=N4)CC3)cc2NC1=O (stereo not drawn) [US20240400586, Compound 15]	0.65
